Experimental data reported in patent US20250064990A1, “METHODS OF SCREENING FOR VMAT2 INHIBITORS” (Neurocrine Biosciences, Inc., priority 2021, published 2025).
In brackets after ≈: the same amount, converted by molar mass. Where two headings read alike, the source gives them in different places.

Target: VMAT2 (Homo sapiens, UniProt Q05940)
Assay: VMAT2 target occupancy of single oral doses of NBI-750142 in healthy adult male subjects, [^18F]AV-133 PET
Assay type: in vivo
Parameters: from tissue; host or cells: brain (caudate, putamen, midbrain) of living healthy adult male subjects
Settings: for [^18F]AV-133 BPND T2 / NBI-750142 T2 Occ: T2 (18 h post dose); for NBI-750142 T1 Occ / [^18F]AV-133 BPND T1: T1 ([…] post dose); for EC50: read-out: EC50 (NBI-750142 plasma concentration vs VMAT2 striatal occupancy) (converted)
Method: This study was conducted to evaluate the brain penetration and target engagement of VMAT2 after single oral doses of NBI-750142 in healthy subjects. This PET study assessed the engagement of NBI-750142 with VMAT2 in vivo at two time-points after dosing. A sequential-cohort design allowed for the safety, target-occupancy, and available pharmacokinetic (PK) data from each prior cohort to be evaluated before selection of the dose level for the next cohort. A range of NBI-750142 doses (max. 200 mg) were studied to explore the relationship between NBI-750142 plasma concentrations and engagement of VMAT2 in selected brain regions.
This was a Phase 1 single-center, open-label, single-dose, target occupancy study of NBI-750142 in up to 12 healthy male subjects using [^18F]AV-133 PET imaging. […] A total of 12 subjects completed the study. Subjects enrolled in the study were required to report to the clinical research site for 4 separate occasions, detailed below.
Two subjects were initially enrolled in each dose cohort. Each subject received one brain structural magnetic resonance imaging (MRI) scan during screening and up to 3 [^18F]AV-133 PET scans (1 baseline and up to 2 follow-up scans after receiving a single dose of NBI-750142). Subjects enrolled in the first cohort received a single dose of 100 mg of NBI-750142 orally on Day 1. PET scans occurred on Day 1 at approximately 1.5 hours post NBI-750142 dose and on Day 2 at approximately 18 hours post NBI-750142 dose. Subjects were then discharged from the study center after all Day 3 procedures and assessments were completed.
Subjects were administered a single dose of [^18F]AV-133 intravenously over 3 minutes using an infusion pump (approximately 3.33 mL per minute) through a venous catheter followed by a 10 mL saline flush. Dynamic PET imaging of the brain was acquired over 120 min following radiotracer injection on a Siemens Biograph 6 PET/CT camera according to the following protocol: • CT scan of the head • [^18F]AV-133 injection (T=0 min) • Emission scan: 6×30 sec, 4×1 min, 4×2 min, 21×5 min (0-120 min)
Reconstructed PET imaging data volumes were transferred to the image processing PMOD software package (PMOD Technologies, Zurich, Switzerland) where the images were motion and decay corrected, realigned onto the subject MRI and subsequently normalized into the standard MNI (Montreal Neurological Institute) space where volumes of interest (VOIs) were defined from a template (see e.g., Hammers et al, Adult brain maximum probability map (“Hammersmith atlas”; n30r83) in MNI space. 2008). The subject MRI was segmented into grey matter, white matter, and CSF maps. Average activity concentration (kBq/cc) within each VOI, constrained to grey matter voxels for cortical regions, were determined and time activity curves (TACs) were generated. TACs were extracted from the following VOIs: caudate and putamen (striatum), midbrain, cerebellar and occipital cortices. TACs and were expressed in standard uptake value (SUV) units (g/mL) by normalizing with the weight of the subject and the injected dose. The occipital cortex was used as a reference region to normalize activity in target regions to generate SUVr images. For visualization, standard uptake value ratio (SUVr) images were computed between 60-120 min. Non-displaceable binding potential (BPND), the primary outcome measure, was estimated with noninvasive Logan graphical analysis (NI-LGA, t*=20 min) in caudate, putamen and midbrain using the occipital cortex as the reference region. Percent measured occupancy (OM) of NBI-750142 (drug) by region was computed according to the Equation 3-1 at each of the post-dose timepoints, T1 (1.5 h post dose) and T2 (18 h post dose).
Post-hoc exploratory analysis applied an Upregulation model (Equation 3-3), in order to account for the apparent ‘negative occupancy’ values observed at T2 (BPND values at T2 were unexpectedly higher than corresponding BPND values at baseline). […]

[1] = Cohort 4, 60 mg, Subject 1, Midbrain
[2] = Cohort 4, 60 mg, Subject 1, Putamen
[3] = Cohort 4, 60 mg, Subject 2, Caudate
[4] = Cohort 4, 60 mg, Subject 2, Midbrain
[5] = Cohort 4, 60 mg, Subject 2, Putamen
[6] = Cohort 5A, 10 mg, Subject 1, Caudate (2nd line so labelled)
[7] = Cohort 5A, 10 mg, Subject 1, Caudate
[8] = Cohort 5A, 10 mg, Subject 1, Midbrain
[9] = Cohort 5A, 10 mg, Subject 2, Caudate (2nd line so labelled)
[10] = Cohort 5A, 10 mg, Subject 2, Caudate
[11] = Cohort 5A, 10 mg, Subject 2, Midbrain
[12] = Cohort 5B, 10 mg, Subject 3, Caudate
[13] = Cohort 5B, 10 mg, Subject 3, Midbrain
[14] = Cohort 5B, 10 mg, Subject 3, Putamen
[15] = Cohort 5B, 10 mg, Subject 4, Caudate
[16] = Cohort 5B, 10 mg, Subject 4, Midbrain
[17] = Cohort 5B, 10 mg, Subject 4, Putamen
[18] = Upregulation model, post hoc exploratory, both T1 and T2 data
[19] = average of caudate and putamen, 100 mg

Chain of VMAT2 (Q05940 whole entry): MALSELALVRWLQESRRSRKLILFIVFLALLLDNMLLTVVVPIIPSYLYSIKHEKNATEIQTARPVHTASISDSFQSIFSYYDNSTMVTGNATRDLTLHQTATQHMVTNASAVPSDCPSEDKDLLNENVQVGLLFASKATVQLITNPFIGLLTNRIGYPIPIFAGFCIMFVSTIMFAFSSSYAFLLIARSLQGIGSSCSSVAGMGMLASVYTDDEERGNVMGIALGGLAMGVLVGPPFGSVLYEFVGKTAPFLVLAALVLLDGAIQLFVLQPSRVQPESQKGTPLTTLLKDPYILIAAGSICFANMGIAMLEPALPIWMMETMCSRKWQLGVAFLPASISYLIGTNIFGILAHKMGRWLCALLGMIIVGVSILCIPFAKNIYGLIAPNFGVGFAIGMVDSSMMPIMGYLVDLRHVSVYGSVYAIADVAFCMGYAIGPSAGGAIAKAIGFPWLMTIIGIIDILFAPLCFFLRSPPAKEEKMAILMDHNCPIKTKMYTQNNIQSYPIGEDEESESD

With `COc1cc2c(cc1OC)[C@H]1CN(C)[C@H](CC(C)(C)C)CN1CC2` [NBI-750142] the “[^18F]AV-133 BPND T2” value (Cohort 4, 60 mg, Subject 1, Caudate) was 1.69, the “NBI-750142 T1 Occ” value [1] was 55% and the “[^18F]AV-133 BPND T1” value [1] was 0.20. The “NBI-750142 T2 Occ” value [1] was −1%, the “[^18F]AV-133 BPND T2” value [1] was 0.44 and the “NBI-750142 T1 Occ” value [2] was 39%. The “[^18F]AV-133 BPND T1” value [2] was 1.10, the “NBI-750142 T2 Occ” value [2] was −12% and the “[^18F]AV-133 BPND T2” value [2] was 2.01. The “NBI-750142 T1 Occ” value [3] was 11%, the “[^18F]AV-133 BPND T1” value [3] was 1.26 and the “NBI-750142 T2 Occ” value [3] was −13%. For the same molecule, the “[^18F]AV-133 BPND T2” value [3] was 1.61, the “NBI-750142 T1 Occ” value [4] was 27% and the “[^18F]AV-133 BPND T1” value [4] was 0.28. For the same molecule, the “NBI-750142 T2 Occ” value [4] was −12%, the “[^18F]AV-133 BPND T2” value [4] was 0.42 and the “NBI-750142 T1 Occ” value [5] was 8%. For the same molecule, the “[^18F]AV-133 BPND T1” value [5] was 1.73, the “NBI-750142 T2 Occ” value [5] was −12% and the “[^18F]AV-133 BPND T2” value [5] was 2.09. The “Occupancy at T2 in striatum” value (Cohort 4 at 60 mg, subject 1, 18 h post dose) was −10%, the “Occupancy at T2 in striatum” value (Cohort 4 at 60 mg, subject 2, 18 h post dose) was −12% and the “Occupancy at T2 in striatum” value (Cohort 5A at 10 mg, subject 1, 18 h post dose) was −3%. The “Occupancy at T2 in striatum” value (Cohort 5A at 10 mg, subject 2, 18 h post dose) was −4%, the “NBI-750142 T1 Occ” value [6] was 26% and the “[^18F]AV-133 BPND T1” value [6] was 1.76. The “NBI-750142 T2 Occ” value [6] was −4%, the “[^18F]AV-133 BPND T2” value [6] was 2.48 and the “NBI-750142 T1 Occ” value [7] was 27%. The “[^18F]AV-133 BPND T1” value [7] was 1.14, the “NBI-750142 T2 Occ” value [7] was −2% and the “[^18F]AV-133 BPND T2” value [7] was 1.58. For the same molecule, the “NBI-750142 T1 Occ” value [8] was 41%, the “[^18F]AV-133 BPND T1” value [8] was 0.31 and the “NBI-750142 T2 Occ” value [8] was 1%. For the same molecule, the “[^18F]AV-133 BPND T2” value [8] was 0.52, the “NBI-750142 T1 Occ” value [9] was 9% and the “[^18F]AV-133 BPND T1” value [9] was 2.88. For the same molecule, the “NBI-750142 T2 Occ” value [9] was −6%, the “[^18F]AV-133 BPND T2” value [9] was 3.34 and the “NBI-750142 T1 Occ” value [10] was 11%. For the same molecule, the “[^18F]AV-133 BPND T1” value [10] was 1.98, the “NBI-750142 T2 Occ” value [10] was −3% and the “[^18F]AV-133 BPND T2” value [10] was 2.29. For the same molecule, the “NBI-750142 T1 Occ” value [11] was 20%, the “[^18F]AV-133 BPND T1” value [11] was 0.43 and the “NBI-750142 T2 Occ” value [11] was −19%. The “[^18F]AV-133 BPND T2” value [11] was 0.65, the “Occupancy at T2 in striatum” value (Cohort 5B at 10 mg, subject 3, 18 h post dose) was −14% and the “Occupancy at T2 in striatum” value (Cohort 5B at 10 mg, subject 4, 18 h post dose) was 5%. The “NBI-750142 T1 Occ” value [12] was −2%, the “[^18F]AV-133 BPND T1” value [12] was 2.51 and the “NBI-750142 T2 Occ” value [12] was −14%. The “[^18F]AV-133 BPND T2” value [12] was 2.81, the “NBI-750142 T1 Occ” value [13] was 19% and the “[^18F]AV-133 BPND T1” value [13] was 0.40. The “NBI-750142 T2 Occ” value [13] was −14%, the “[^18F]AV-133 BPND T2” value [13] was 0.56 and the “NBI-750142 T1 Occ” value [14] was −2%. The “[^18F]AV-133 BPND T1” value [14] was 2.90, the “NBI-750142 T2 Occ” value [14] was −14% and the “[^18F]AV-133 BPND T2” value [14] was 3.25. The “NBI-750142 T1 Occ” value [15] was −4%, the “[^18F]AV-133 BPND T1” value [15] was 2.35 and the “NBI-750142 T2 Occ” value [15] was 4%. The “[^18F]AV-133 BPND T2” value [15] was 2.16, the “NBI-750142 T1 Occ” value [16] was 0% and the “[^18F]AV-133 BPND T1” value [16] was 0.52. The “NBI-750142 T2 Occ” value [16] was −2%, the “[^18F]AV-133 BPND T2” value [16] was 0.53 and the “NBI-750142 T1 Occ” value [17] was −3%. The “[^18F]AV-133 BPND T1” value [17] was 3.03, the “NBI-750142 T2 Occ” value [17] was 6% and the “[^18F]AV-133 BPND T2” value [17] was 2.75. For the same molecule, the EC50 (Emax model, T1 occupancy values alone) was 76.7 nM, the “EC50 (NBI-750142 plasma concentration vs VMAT2 striatal occupancy)” value (Emax model, both T1 and T2 occupancy values) was 0.0352 µg/mL (≈ 0.106 µM) and the “upregulation factor (URF)” value (Upregulation model, both T1 and T2 data) was 2.76. The “EC50 (NBI-750142 plasma concentration vs VMAT2 striatal occupancy)” value [18] was 0.0063 µg/mL (≈ 0.0189 µM), the EC50 [18] was 19.5 nM and the “[^18F]AV-133 striatal uptake at T2” value (across all cohorts) was “appeared to return to, or slightly exceed, baseline levels”. The “Occupancy in the striatum at T1, lower end of range” value (average of caudate and putamen, 10 mg) was −4%, the “Occupancy in the striatum at T1, upper end of range” value [19] was 76% and the “Occupancy in the striatum at T2, upper end of range” value [19] was 14%. For the same molecule, the “Occupancy in the striatum at T2, lower end of range” value (average of caudate and putamen, 200 mg) was −28%.
